target: T1, human VDR (Homo sapiens, UniProt P11473); assay: Evaluation of VDR transcription activity in human osteoblasts (HOS cells), luciferase reporter; conditions: Activity (EC50, VDR transcription activity), HOS cells transfected with human VDR, human RXRα and DR3 luciferase reporter; 21 hours
T1 sequence (P11473 1-427): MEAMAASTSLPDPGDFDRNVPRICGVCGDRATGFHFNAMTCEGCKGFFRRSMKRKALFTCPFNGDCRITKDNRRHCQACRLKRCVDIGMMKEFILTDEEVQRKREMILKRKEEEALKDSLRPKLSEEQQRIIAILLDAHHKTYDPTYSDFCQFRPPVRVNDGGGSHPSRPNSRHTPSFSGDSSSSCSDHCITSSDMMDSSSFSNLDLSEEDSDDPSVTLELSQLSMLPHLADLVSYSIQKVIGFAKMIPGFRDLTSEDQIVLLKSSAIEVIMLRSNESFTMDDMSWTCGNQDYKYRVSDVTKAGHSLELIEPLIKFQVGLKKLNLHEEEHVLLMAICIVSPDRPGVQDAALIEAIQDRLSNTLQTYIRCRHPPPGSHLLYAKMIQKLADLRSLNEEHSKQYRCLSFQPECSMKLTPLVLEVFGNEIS
T1 sequence (P19793 1-462 partner): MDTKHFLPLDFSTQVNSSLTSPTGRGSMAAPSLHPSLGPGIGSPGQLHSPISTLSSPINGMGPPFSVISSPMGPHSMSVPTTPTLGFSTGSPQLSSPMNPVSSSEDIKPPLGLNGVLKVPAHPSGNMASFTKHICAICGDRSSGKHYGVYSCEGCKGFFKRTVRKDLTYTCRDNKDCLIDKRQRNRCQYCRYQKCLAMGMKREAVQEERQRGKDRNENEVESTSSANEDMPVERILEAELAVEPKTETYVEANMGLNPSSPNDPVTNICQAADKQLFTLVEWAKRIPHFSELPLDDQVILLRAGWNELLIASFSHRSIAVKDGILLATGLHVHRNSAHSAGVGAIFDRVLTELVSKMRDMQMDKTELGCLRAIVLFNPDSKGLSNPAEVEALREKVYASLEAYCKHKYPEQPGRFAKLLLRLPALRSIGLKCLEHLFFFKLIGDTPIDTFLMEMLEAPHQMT

First: C=C1/C(=C\C=C2/CCC[C@]3(C)[C@@H]([C@H](C)CN4CC[C@@H](C(C)(F)F)C4)CC[C@@H]23)C[C@@H](O)[C@H](C)[C@@H]1O [Compound B033, (1R,2S,3S,Z)-5-(2-((1R,3aS,7aR,E)-1-((S)-1-((R)-3-(1,1-difluoroethyl)pyrrolidin-1-yl)propan-2-yl)-7a-methyloctahydro-4H-inden-4-ylidene)ethylidene)-2-methyl-4-methylenecyclohexane-1,3-diol]
Second: C=C1/C(=C\C=C2/CCC[C@]3(C)[C@@H]([C@H](C)CN4CC[C@H](CC(F)F)C4)CC[C@@H]23)C[C@@H](O)[C@H](C)[C@@H]1O [Compound B038, (1R,2S,3S,Z)-5-(2-((1R,3aS,7aR,E)-1-((S)-1-((R)-3-(2,2-difluoroethyl)pyrrolidin-1-yl)propan-2-yl)-7a-methyloctahydro-4H-inden-4-ylidene)ethylidene)-2-methyl-4-methylenecyclohexane-1,3-diol]
The EC50 of the first is lower: 1 to 10 nM for the first, 10 to 100 nM for the second. The first is the more potent here.

`C=C1[C@H](O)CC(=C/C=C2\CCC[C@]3(C)[C@@H]([C@H](C)CN4CC[C@@H](C(C)(F)F)C4)CC[C@@H]23)C[C@H]1O` [Compound B035, (1R,3R)-5-(2-((1R,3aS,7aR,E)-1-((S)-1-((R)-3-(1,1-difluoroethyl)pyrrolidin-1-yl)propan-2-yl)-7a-methyloctahydro-4H-inden-4-ylidene)ethylidene)-2-methylenecyclohexane-1,3-diol] and `C=C1[C@H](O)CC(=C/C=C2\CCC[C@]3(C)[C@@H]([C@H](C)CN4CC[C@H](OC(F)F)C4)CC[C@@H]23)C[C@H]1O` [Compound B049, (1R,3R)-5-(2-((1R,3aS,7aR,E)-1-((S)-1-((S)-3-(difluoromethoxy)pyrrolidin-1-yl)propan-2-yl)-7a-methyloctahydro-4H-inden-4-ylidene)ethylidene)-2-methylenecyclohexane-1,3-diol] fall in the same range of EC50: 1 to 10 nM for the first, 1 to 10 nM for the second.

First: C=C1/C(=C\C=C2/CCC[C@]3(C)[C@@H]([C@H](C)CN4CC[C@@H](CC(F)F)C4)CC[C@@H]23)C[C@@H](O)[C@H](C)[C@@H]1O [Compound B039, (1R,2S,3S,Z)-5-(2-((1R,3aS,7aR,E)-1-((S)-1-((S)-3-(2,2-difluoroethyl)pyrrolidin-1-yl)propan-2-yl)-7a-methyloctahydro-4H-inden-4-ylidene)ethylidene)-2-methyl-4-methylenecyclohexane-1,3-diol]
Second: C=C1/C(=C\C=C2/CCC[C@]3(C)[C@@H]([C@H](C)CN4CC[C@@H](CCC(F)F)C4)CC[C@@H]23)C[C@@H](O)C[C@@H]1O [Compound B060, (1R,3S,Z)-5-(2-((1R,3aS,7aR,E)-1-((S)-1-((R)-3-(3,3-difluoropropyl)pyrrolidin-1-yl)propan-2-yl)-7a-methyloctahydro-4H-inden-4-ylidene)ethylidene)-4-methylenecyclohexane-1,3-diol]
The EC50 of the first is lower: 1 to 10 nM for the first, 10 to 100 nM for the second.

First: C=C1[C@H](O)CC(=C/C=C2\CCC[C@]3(C)[C@@H]([C@H](C)CN4CC[C@@H](OC(F)F)C4)CC[C@@H]23)C[C@H]1O [Compound B050, (1R,3R)-5-(2-((1R,3aS,7aR,E)-1-((S)-1-((R)-3-(difluoromethoxy)pyrrolidin-1-yl)propan-2-yl)-7a-methyloctahydro-4H-inden-4-ylidene)ethylidene)-2-methylenecyclohexane-1,3-diol]
Second: C=C1[C@H](O)CC(=C/C=C2\CCC[C@]3(C)[C@@H]([C@H](C)CN4CC[C@@H](OCC(F)F)C4)CC[C@@H]23)C[C@H]1O [Compound B056, (1R,3R)-5-(2-((1R,3aS,7aR,E)-1-((S)-1-((R)-3-(2,2-difluoroethoxy)pyrrolidin-1-yl)propan-2-yl)-7a-methyloctahydro-4H-inden-4-ylidene)ethylidene)-2-methylenecyclohexane-1,3-diol]
The EC50 of the first is lower: 1 to 10 nM for the first, 10 to 100 nM for the second. The first is the more potent here.

`C[C@H](CN1CC[C@@H](OC(F)F)C1)[C@H]1CC[C@H]2/C(=C/C=C3C[C@@H](O)C[C@H](O)C3)CCC[C@]12C` [Compound B052, (1R,3R)-5-(2-((1R,3aS,7aR,E)-1-((S)-1-((R)-3-(difluoromethoxy)pyrrolidin-1-yl)propan-2-yl)-7a-methyloctahydro-4H-inden-4-ylidene)ethylidene)cyclohexane-1,3-diol] and `C[C@H](CN1CC[C@H](CCC(F)F)C1)[C@H]1CC[C@H]2/C(=C/C=C3C[C@@H](O)C[C@H](O)C3)CCC[C@]12C` [Compound B063, (1R,3R)-5-(2-((1R,3aS,7aR,E)-1-((S)-1-((S)-3-(3,3-difluoropropyl)pyrrolidin-1-yl)propan-2-yl)-7a-methyloctahydro-4H-inden-4-ylidene)ethylidene)cyclohexane-1,3-diol] fall in the same range of EC50: 10 to 100 nM for the first, 10 to 100 nM for the second.

`C=C1/C(=C\C=C2/CCC[C@]3(C)[C@@H]([C@H](C)CN4CC[C@H](OCC(F)F)C4)CC[C@@H]23)C[C@@H](O)C[C@@H]1O` [Compound B053, (1R,3S,Z)-5-(2-((1R,3aS,7aR,E)-1-((S)-1-((S)-3-(2,2-difluoroethoxy)pyrrolidin-1-yl)propan-2-yl)-7a-methyloctahydro-4H-inden-4-ylidene)ethylidene)-4-methylenecyclohexane-1,3-diol] and `C=C1/C(=C\C=C2/CCC[C@]3(C)[C@@H]([C@H](C)CN4CC[C@@H](OCC(F)F)C4)CC[C@@H]23)C[C@@H](O)C[C@@H]1O` [Compound B054, (1R,3S,Z)-5-(2-((1R,3aS,7aR,E)-1-((S)-1-((R)-3-(2,2-difluoroethoxy)pyrrolidin-1-yl)propan-2-yl)-7a-methyloctahydro-4H-inden-4-ylidene)ethylidene)-4-methylenecyclohexane-1,3-diol] fall in the same range of EC50: 10 to 100 nM for the first, 10 to 100 nM for the second.

`C=C1/C(=C\C=C2/CCC[C@]3(C)[C@@H]([C@H](C)CN4CC[C@H](OC(F)(F)F)C4)CC[C@@H]23)C[C@@H](O)C[C@@H]1O` [Compound B065, (1R,3S,Z)-5-(2-((1R,3aS,7aR,E)-7a-methyl-1-((S)-1-((S)-3-(trifluoromethoxy)pyrrolidin-1-yl)propan-2-yl)octahydro-4H-inden-4-ylidene)ethylidene)-4-methylenecyclohexane-1,3-diol] and `C=C1/C(=C\C=C2/CCC[C@]3(C)[C@@H]([C@H](C)CN4CC[C@@H](OC(F)(F)F)C4)CC[C@@H]23)C[C@@H](O)C[C@@H]1O` [Compound B066, (1R,3S,Z)-5-(2-((1R,3aS,7aR,E)-7a-methyl-1-((S)-1-((R)-3-(trifluoromethoxy)pyrrolidin-1-yl)propan-2-yl)octahydro-4H-inden-4-ylidene)ethylidene)-4-methylenecyclohexane-1,3-diol] fall in the same range of EC50: 10 to 100 nM for the first, 10 to 100 nM for the second.

First: C=C1/C(=C\C=C2/CCC[C@]3(C)[C@@H]([C@H](C)CN4CC[C@](C)(O)C4)CC[C@@H]23)C[C@@H](O)C[C@@H]1O [Compound B071, (1R,3S,Z)-5-(2-((1R,3aS,7aR,E)-1-((S)-1-((S)-3-hydroxy-3-methylpyrrolidin-1-yl)propan-2-yl)-7a-methyloctahydro-4H-inden-4-ylidene)ethylidene)-4-methylenecyclohexane-1,3-diol]
Second: C=C1/C(=C\C=C2/CCC[C@]3(C)[C@@H]([C@H](C)CN4CC[C@@](C)(O)C4)CC[C@@H]23)C[C@@H](O)C[C@@H]1O [Compound B074, (1R,3S,Z)-5-(2-((1R,3aS,7aR,E)-1-((S)-1-((R)-3-hydroxy-3-methylpyrrolidin-1-yl)propan-2-yl)-7a-methyloctahydro-4H-inden-4-ylidene)ethylidene)-4-methylenecyclohexane-1,3-diol]
The EC50 of the first is lower: 10 to 100 nM for the first, 100 to 1000 nM for the second.

`C=C1[C@H](O)CC(=C/C=C2\CCC[C@]3(C)[C@@H]([C@H](C)CN4CCC(O)(C5CC5)C4)CC[C@@H]23)C[C@H]1O` (stereo partly drawn) [Compound B077, (1R,3R)-5-(2-((1R,3aS,7aR,E)-1-((2S)-1-(3-cyclopropyl-3-hydroxypyrrolidin-1-yl)propan-2-yl)-7a-methyloctahydro-4H-inden-4-ylidene)ethylidene)-2-methylenecyclohexane-1,3-diol] and `C[C@H](CCN1CC[C@H](C(F)F)C1)[C@H]1CC[C@H]2/C(=C/C=C3C[C@@H](O)C[C@H](O)C3)CCC[C@]12C` [Compound B080, (1R,3R)-5-(2-((1R,3aS,7aR,E)-1-((R)-4-((S)-3-(difluoromethyl)pyrrolidin-1-yl)butan-2-yl)-7a-methyloctahydro-4H-inden-4-ylidene)ethylidene)cyclohexane-1,3-diol] fall in the same range of EC50: 10 to 100 nM for the first, 10 to 100 nM for the second.

For `C[C@H](CCN1CC[C@@H](C(F)F)C1)[C@H]1CC[C@H]2/C(=C/C=C3C[C@@H](O)C[C@H](O)C3)CCC[C@]12C` [Compound B081, (1R,3R)-5-(2-((1R,3aS,7aR,E)-1-((R)-4-((R)-3-(difluoromethyl)pyrrolidin-1-yl)butan-2-yl)-7a-methyloctahydro-4H-inden-4-ylidene)ethylidene)cyclohexane-1,3-diol], the EC50 was 10 to 100 nM.
